# Data taken from patent US9133207B2, “Tetrandrine derivatives with substituted 5-carbon, preparation method and use thereof” (Hangzhou Bensheng Pharmaceutical Co., Ltd., priority 2011, dated 2015).
# Assays:
# [1] = system: H9 (acute lymphoblastic leukemia, ALL); assay: Leukemia cell growth inhibition, MTT, 72 h (Example 5); format: cell-based, human; conditions: Homo sapiens; 72 h, MTT
# From the text: (§1) Leukemia cell lines: leukemia cell lines: K562/adr (drug-resistant, chronic myeloid leukemia, CML), NB4 (acute promyelocytic leukemia, AML), Kasumi-1 (acute myeloid leukemia M2 type, AML-M2), Jurkat (acute lymphoblastic leukemia, ALL), all of which are donated by Cancer Research Institute of Zhejiang University, China; and H9 (acute lymphoblastic leukemia, ALL), which is purchased from China Center for Type Culture Collection.
# (§2) Reagents: The standard sample of tetrandrine (TTD) is purchased from Ci Yuan Biotechnology Co., Ltd., Shaanxi, China; and the 5-substituted tetrandrine derivatives of the present invention.
# (§3) Obtaining 6000 well-growing leukemia cells and inoculating them into wells of a 96-well cell culture plate. The culture medium is a 1640 cell culture medium containing 10% fetal bovine serum. After adding the tetrandrine derivatives of different concentrations and mixing uniformly, placing the plate in a carbon dioxide cell incubator (5% CO2) at 37° C. and incubating for 72 hours. Then the viable cell concentration is determined by the MTT method.
# [2] = system: Jurkat (acute lymphoblastic leukemia, ALL); assay: as above; format: cell-based, human; conditions: Homo sapiens, Jurkat; 72 h, MTT
# From the text: as §1, §2, §3
# [3] = system: K562/adr (drug-resistant, chronic myeloid leukemia, CML); assay: as above; format: cell-based, human; conditions: Homo sapiens, K562/Adr; 72 h, MTT
# From the text: as §1, §2, §3
# [4] = system: Kasumi-1 (acute myeloid leukemia M2 type, AML-M2); assay: as above; format: cell-based, human; conditions: Homo sapiens, Kasumi 1
# From the text: as §1, §2, §3
# [5] = system: NB4 (acute promyelocytic leukemia, AML); assay: as above; format: cell-based, human; conditions: Homo sapiens; 72 h, MTT
# From the text: as §1, §2, §3
# [6] = system: RPMI8226 (multiple myeloma); assay: Multiple myeloma cell growth inhibition, MTT, 72 h (Example 6); format: cell-based, human; conditions: Homo sapiens, RPMI-8226; 72 h, MTT, RPMI8226
# Protocol: Multiple myeloma and lymphoma cell lines: RPMI8226 (multiple myeloma), purchased from Fuxiang Bio-tech Co. Ltd., Shanghai, China.
# (§4) Reagents: the same as in Example 5.
# as §3, with “incubated” for “incubating”
# [7] = system: CaES-17 (esophageal cancer cell); assay: Solid tumor cell growth inhibition, MTT, 72 h (Example 7); format: cell-based, human; conditions: Homo sapiens, CaEs17; 72 h, MTT, CAES-17
# Protocol: (§5) Human solid tumor cell lines: Hep-2 (laryngeal carcinoma), A549 (human lung cancer), CaES-17 (esophageal cancer cell), PC-3 (prostate cancer), CNE (nasopharyngeal carcinoma cell) and SK-OV-3 (ovarian cancer cell), all of which are purchased from China Center For Type Culture Collection; RKO (human colon adenocarcinoma cell), MGC 803 (human gastric cancer cell), MG63 (osteosarcoma), and U87 MG (malignant glioma cell), all of which are purchased from Fuxiang Bio-tech Co. Ltd., Shanghai, China; PANC-1 (pancreatic cancer), Huh? (human liver cancer cell), Becap37 (human breast cancer cell), and Hela (human cervical cancer cell), all of which are donated by Cancer Research Institute of Zhejiang University, China.
# as §4
# (§6) Obtaining 4000 well-growing human solid tumor cells and inoculating them into wells of a 96-well cell culture plate. The culture medium is DMEM High Glucose cell culture medium containing 10% fetal bovine serum. The plate is placed in a carbon dioxide cell incubator (5% CO2) at 37° C. and incubated for 24 hours. After been added with tetrandrine derivatives of different concentration and mixing uniformly, the plate is placed in a carbon dioxide cell incubator (5% CO2) at 37° C. and incubated for 72 hours. Then the viable cell concentration is determined by the MTT method and the cell viability (%) after drug treatment is calculated. In this experiment, the cell viability of control group (not treated with any compound) is set as 100%.
# MG63 (osteosarcoma) = assay: as above; format: cell-based, human; conditions: Homo sapiens; 72 h, MTT, MG-63
# Protocol: as §5, §4, §6
# [8] = system: PANC-1 (pancreatic cancer); assay: as above; format: cell-based, human; conditions: Homo sapiens; 72 h, MTT, PANC-1
# Protocol: as §5, §4, §6
# PC-3 (prostate cancer) = assay: as above; format: cell-based, human; conditions: for IC50 / IC90: Homo sapiens, 72 h, MTT, PC-3
# Protocol: as §5, §4, §6
# A549 (human lung cancer) = assay: as above; format: cell-based; conditions: for IC50 / IC90: Homo sapiens, 72 h, MTT, A549
# Protocol: as §5, §4, §6
# [9] = system: Becap37 (human breast cancer cell); assay: as above; format: cell-based; conditions: Homo sapiens; 72 h, MTT, Becap-37
# Protocol: as §5, §4, §6
# [10] = system: Huh7 (human liver cancer cell); assay: as above; format: cell-based; conditions: Homo sapiens; 72 h, MTT, Huh-7
# Protocol: as §5, §4, §6
# [11] = system: MGC 803 (human gastric cancer cell); assay: as above; format: cell-based; conditions: Homo sapiens
# Protocol: as §5, §4, §6
# [12] = system: RKO (human colon adenocarcinoma cell); assay: as above; format: cell-based; conditions: Homo sapiens; 72 h, MTT, RKO
# Protocol: as §5, §4, §6
IC50 [1] [µg/mL],IC90 [1] [µg/mL],IC50 [2] [µg/mL],IC90 [2] [µg/mL],IC50 [3] [µg/mL],IC90 [3] [µg/mL],IC50 [4] [µg/mL],IC90 [4] [µg/mL],IC50 [6] [µg/mL],IC90 [6] [µg/mL],IC50 [7] [µg/mL],IC90 [7] [µg/mL],IC50 (MG63 (osteosarcoma)) [µg/mL],IC90 (MG63 (osteosarcoma)) [µg/mL],IC50 [8] [µg/mL],IC90 [8] [µg/mL],IC50 (PC-3 (prostate cancer)) [µg/mL],IC90 (PC-3 (prostate cancer)) [µg/mL],IC50 (A549 (human lung cancer)) [µg/mL],IC90 (A549 (human lung cancer)) [µg/mL],SMILES,also measured
1.31,4.5,1.38,4.74,0.63,3,1.1,4.84,0.09,0.76,3.06,9.92,1.26,4.35,5.79,9,4.53,7.51,1.35,4.58,COc1ccc2cc1Oc1ccc(cc1)C[C@H]1c3cc(c(OC)cc3CCN1C)Oc1c(OC)c(OC)c(CNCc3ccccn3)c3c1[C@H](C2)N(C)CC3 [BS-TE-352],IC50 [5]: 1.05 µg/mL; IC90 [5]: 3.88 µg/mL; IC50 [9]: 1.4 µg/mL; IC90 [9]: 4.85 µg/mL; IC50 [10]: 3.61 µg/mL; IC90 [10]: 4.98 µg/mL; IC50 [11]: 4.38 µg/mL; IC90 [11]: > 10 µg/mL
0.7,1.44,1.35,4.96,0.44,7.2,0.52,3.11,0.006,0.42,1.1,17,0.74,2.05,3.72,13.4,1.56,4.9,1,5.25,COc1ccc2cc1Oc1ccc(cc1)C[C@H]1c3cc(c(OC)cc3CCN1C)Oc1c(OC)c(OC)c(CN3CCCC3)c3c1[C@H](C2)N(C)CC3 [BS-TE-305],IC50 [5]: 0.29 µg/mL; IC90 [5]: 2 µg/mL; anti-PC-3 activity increase over tetrandrine (PC-3 (prostate cancer); compared with tetrandrine): ~4 fold; anti-A549 activity increase over tetrandrine (A549 (human lung cancer); compared with tetrandrine): ~3 fold; IC50 [9]: 1.44 µg/mL; IC90 [9]: 6.24 µg/mL; IC50 [10]: 1.28 µg/mL; IC90 [10]: 2.3 µg/mL; IC50 [11]: 1 µg/mL; IC90 [11]: 10 µg/mL; IC50 [12]: 0.66 µg/mL; IC90 [12]: 1.65 µg/mL
2.03,4.03,2.37,5.51,0.56,2.83,1.45,6.95,0.18,1.22,2.4,7.94,1.96,4.38,6.17,9.8,3.68,7.59,5.44,16,COc1ccc2cc1Oc1ccc(cc1)C[C@H]1c3cc(c(OC)cc3CCN1C)Oc1c(OC)c(OC)c(Cn3cccn3)c3c1[C@H](C2)N(C)CC3 [BS-TE-330],IC50 [9]: 6 µg/mL; IC90 [9]: 12 µg/mL; IC50 [10]: 2.96 µg/mL; IC90 [10]: 4.9 µg/mL; IC50 [11]: 1.61 µg/mL; IC90 [11]: 6.48 µg/mL; IC50 [12]: 2.5 µg/mL; IC90 [12]: 4.64 µg/mL
